The source of these data is PMC4565635, “6-Shogaol Inhibits Breast Cancer Cells and Stem Cell-Like Spheroids by Modulation of Notch Signaling Pathway and Induction of Autophagic Cell Death” (PLoS ONE, 2015).

Data set [1] relates to MCF-7 spheroid. Description: MTT cytotoxicity assay, spheroids. In kind it is cell-based, human. The note with it: for IC50: MTT, 48 hours, drug added three days after seeding. As for the experimental part:
(§1) To check the effect of different drugs on the viability of spheroids, cells were seeded at 2.5×10^4 cells/well in 24-well ultra-low attachment plates and grown as spheroids. After 3 days, 6-shogaol (1–100 μM) or taxol (5 nM-50 μM) or curcumin (2–50 μM) was added to the wells and MTT assay was performed as explained above. Standard deviation was calculated from three independent experiments and the data were represented as the average of three experiments.
(Tetrazolium assays rely on reduction of a dye to a coloured formazan, in cell work by metabolically active cells.)

Data set [2] deals with MCF-7 monolayer cells. Description: MTT cytotoxicity assay, monolayer. In kind it is cell-based, human. The note with it: drug added one day after seeding. On the procedure:
(§2) Monolayer cells (5×10^3cells/well) were seeded in quadruplicates in 96 well plates and were incubated with varying concentrations of 6-shogaol (1–100 μM), taxol (0.2–100 nM) or curcumin (4–80 μM). The effect of the drugs on the viability of all the cell lines was quantified by MTT (3-[4,5-dimethylthiazol-2-yl]-2,5 diphenyltetrazolium bromide) assay at different time points after drug treatment using a Biorad Plate reader. The IC50 values were calculated from the plot of percentage cell viability versus concentration of drug using the nonlinear regression programme of Origin.

The subject of data set [3] is HaCaT cells. Description: MTT cytotoxicity assay, noncancerous cells. It counts as cell-based, human. To be noted: 48 hours. On the procedure:
as §2

Data set [4] has as its system HEK 293 cells. Description: MTT cytotoxicity assay, noncancerous cells. It counts as cell-based, human. On the procedure: as §2
In data set [5] the test system is MCF-7 cells. Description: DAPI staining for apoptosis (chromatin condensation). It counts as cell-based, human. The note with it: 25 μM. As for the experimental part: Cells were seeded on cover slips. […] Cells were washed with PBS, fixed with Methanol-EDTA for 10 minutes at -20°C followed by rehydration with PBS at room temperature and incubated with 1 μg/ml DAPI. Mounted coverslips were visualised at 40X magnification under fluorescence microscope (Olympus IX71). Apoptotic cells were counted from five different fields.

In data set [6] the test system is MCF-7 spheroids. Description: Secondary sphere formation. In kind it is cell-based, human. The note with it: for inhibition of secondary spheroid colonies: regrown 1 week without compound. As for the experimental part: (§3) 5000 cells/well were seeded in ultra low attachment plates. After 3 days of seeding, the spheres formed were kept with different concentrations of 6-shogaol and/or 25 μM DAPT for 7 days and the number of spheres were counted under the microscope. These primary spheres were dispersed and kept in fresh media without any treatment and counted again after 7 days to check the ability to regrow into secondary spheres. Control primary spheres were also processed similarly for comparison. Spheres were counted in Olympus IX71 microscope using 10X objective.

Data set [7] has as its system MCF-7 spheroid. Description: Cell cycle analysis by flow cytometry (propidium iodide). It counts as cell-based, human. To be noted: 25 μM, 48 hours; control 24%. As for the experimental part: (§4) Cell cycle distribution of cells treated with 6-shogaol was analyzed by flow cytometric measurement of cellular DNA content. MCF-7 cells (5×10^5 cells/well) were subjected to 6-shogaol treatment for various time points. Culture media containing detached cells were collected and attached cells were trypsinized. Cells were pelleted, fixed in 70% (v/v) ethanol and stored at 4°C. In case of spheroids, cells were treated with different concentrations of 6-shogaol for 48 hours and fixed for further analysis. Before analysis, cells were re-washed with PBS and incubated with 10 μg/ml RNaseA and 400 μg/ml propidium iodide for 30 minutes at 37°C. Data were analyzed using FACS Diva software.

The test system of data set [8] is MCF-7 monolayer. The description is as above. It counts as cell-based, human. To be noted: 16 μM (2×IC50), control 29%. On the procedure: as §4
The test system of data set [9] is MDA MB-231 spheroid. Description: MTT cytotoxicity assay, spheroids. In kind it is cell-based, human. To be noted: for IC50: MTT, 48 hours, drug added three days after seeding. On the procedure: as §1
In data set [10] the test system is MCF-7 spheroids. Description: Primary sphere formation. It counts as cell-based, human. As for the experimental part: as §3
For data set [11], the system named is MDA-MB-231 monolayer cells. Description: MTT cytotoxicity assay, monolayer. In kind it is cell-based, human. To be noted: drug added one day after seeding. On the procedure: as §2
For data set [12], the system named is breast cancer spheroids (CD44+CD24-/low cells). Description: Flow cytometric analysis of cell surface markers CD44/CD24. It counts as cell-based, human. To be noted: 40 μM, 18 hours; untreated 27.3%. On the procedure: Monolayer cells or spheroids (with or without treatment of 6-shogaol) were dispersed by trypsin-EDTA. Cells were then pelleted down by centrifugation at 1600 rpm for 5 minutes at 4°C and resuspended in 1 ml of DMEM containing 2% FBS. Fluorescein isothiocyanate (FITC)-conjugated CD24 monoclonal antibody and phycoerythrin (PE)-conjugated CD44 monoclonal antibody (BD Biosciences) were added in 1:100 dilution and incubated on ice for 45 minutes in dark. The cells were then analyzed by flow cytometer (BD FACS Aria II) for the expression of CD24 and CD44.
Background: Flow cytometry measures light scatter and fluorescence of single cells or particles in a stream.

Data set [13] has as its system breast cancer spheroids. Description: Apoptosis detection in spheroids. It counts as cell-based, human. To be noted: 40 μM, upto 72 or 96 hours.
For data set [14], the system named is MRC5, NP69, HaCaT and HMEC. On the set-up: method as in PMID 23612072. The note with it: cited from earlier work.
Data set [15] has as its system MCF-7 cells. Description: Annexin V/PI flow-cytometric apoptosis assay. In kind it is cell-based, human. The note with it: 25 μM, 48 hours. As for the experimental part: Apoptosis was quantified by using a FITC Annexin V Apoptosis Detection kit according to manufacturer’s instructions. MCF-7 cells were treated with 15 μM and 25 μM of 6-shogaol for 24, 48 and 72 hours, respectively. Attached and floating cells were collected and analyzed by a flow cytometer (BD FACS Aria II).

Data set [16] relates to LC3-II in MCF7 cells. Description: Western blot of LC3-II expression. The note with it: 48 hours. It counts as cell-based, human. On the procedure: Lysates were placed into ice for 1 hour to ensure complete lysis followed by centrifugation at 14,000 g for 10 minutes and the supernatant was collected. Proteins were subjected to SDS-PAGE and transferred to polyvinylidene fluoride membrane. The membranes were blocked and incubated overnight with primary antibodies at 4°C followed by incubation with horseradish peroxidase tagged secondary antibodies. The blots were developed using ECL reagent. The primary antibodies were used in the following dilutions: Cleaved Notch1 (1:2000), Hes1 (1:200), Cyclin D1 (1:400), PARP (1:500 for sc) and (1:1000 for CST), LC3A/B (1:500), Bcl-2 (1:1000), Bax (1:1000) and β-actin (1:2000). β-actin was used as loading controls.
Densitometry was conducted for all the western blots using […] software (Bio-Rad). Normalisation was done according to the loading control and fold change was calculated with respect to the control. For graphs, results are depicted as mean ± standard error of mean or standard deviation (calculated from two or more experiments). The p-values were obtained using Student’s unpaired t-test and p < 0.05 was considered to be statistically significant.
A general note: Immunoblotting shows a protein as a band on a membrane.

Broadly, the IC50 is the concentration that inhibits the measured activity by half. Low readings indicate greater potency, high ones weaker potency. On to `COc1cc(/C=C/C(=O)CC(=O)/C=C/c2ccc(O)c(OC)c2)ccc1O` [Curcumin, curcumin], for which the IC50 turned out to be 7.27 ± 0.54 µM in data set [1] (Homo sapiens, MCF7); 37.1 ± 0.85 µM in data set [2] (Homo sapiens, MCF7, 48 hours); 10.4 ± 0.87 µM in data set [3] (Homo sapiens, HaCaT); 23.1 ± 0.68 µM in data set [4] (Homo sapiens, HEK293, 48 hours).
With `CCCCC/C=C/C(=O)CCc1ccc(O)c(OC)c1` [6-shogaol], the “apoptosis as measured by chromatin condensation” value in data set [5] (48 hours) turned out to be 19%; in [5] (72 hours), 28%. Besides, the secondary sphere formation result in data set [6] (concentrations above 10 μM) is “Not a single secondary sphere was found”. For the same compound, the “inhibition of secondary spheroid colonies” value in data set [6] (primary spheroids treated with 1 μM for 1 week, control ~55 colonies) is on record as 71%; in data set [6] (primary spheroids treated with 5 μM for 1 week), 80%; in data set [6] (primary spheroids treated with 10 μM for 1 week), 94.5%. For the same compound, the results for the “percentage of cells in G2/M” value in data set [7], in [8] (24h) and in [8] (48h) were 42%, 48% and 55%, respectively. Also, the “effective concentration in spheroids versus monolayer cells” value in data set [9] (MDA-MB-231 spheroids vs MDA-MB-231 monolayer) is reported as 2 fold; in data set [1] (MCF-7 spheroids vs MCF-7 monolayer) it was 5 fold. For the same compound, the IC50 in data set [9] is 11.2 ± 0.83 µM; in data set [1], 39.5 ± 0.62 µM; in data set [11] (48 hours) it was 5.67 ± 0.73 µM; in data set [2] (48 hours) it was 7.94 ± 0.57 µM; in data set [3], 103.8 ± 0.67 µM; in [4] (48 hours) it was 69.97 ± 0.52 µM. The “potency against MDA-MB-231 spheroids versus MCF-7 spheroids” value in data set [9] (more potent against MDA-MB-231 spheroids) is on record as ~ 3 fold. The “inhibition of cell viability” value in data set [1] (10 μM, after 6 days) is 46%; in data set [1] (10 μM, day 4), ~ 35%; in data set [1] (20 μM, day 4), 56%; in data set [1] (40 μM, day 4) it was 83%. For the same compound, in [10] (1 μM, 7 days), the “reduction of number of primary spheroid colonies” value was found to be 2 fold. Besides, the “average number of spheroid colonies (primary)” value in data set [10] (1 μM, 7 days continuous treatment, control 96) was determined as 48 colonies. In addition, the “inhibition of primary spheroid colonies” value in data set [10] (40 μM, 7 days) is on record as 24 fold. Further, the “number of spheroid colonies (primary)” value in [10] (40 μM, 7 days continuous treatment, control 96) is recorded as 4 colonies. Also, the “percentage of CD44+CD24-/low cells (Q1)” value in [12] came to 2.3%. In data set [13], the “apoptosis in breast cancer spheroids” value is given as “not able to detect appreciable amount of apoptosis”. Moreover, the “toxicity to normal cells” value in data set [14] is on record as “not toxic”. Further, in data set [15], the “early apoptotic cells (Annexin positive/PI negative)” value is 11%. For the same compound, the “fold increase in LC3-II expression” value in [16] (5 μM 6-shogaol alone, relative to control) is 1.8 fold; in data set [16] (5 μM 6-shogaol in combination with low concentration of chloroquine), 3.3 fold; in data set [16] (15 μM 6-shogaol alone, relative to control) it was 2.1 fold; in data set [16] (15 μM 6-shogaol in combination with low concentration of chloroquine), 3.43 fold.
As for `CC(=O)O[C@H]1C(=O)[C@@]2(C)[C@H]([C@H](OC(=O)c3ccccc3)[C@]3(O)C[C@H](OC(=O)[C@H](O)[C@@H](NC(=O)c4ccccc4)c4ccccc4)C(C)=C1C3(C)C)[C@]1(OC(C)=O)CO[C@@H]1C[C@@H]2O` [Taxol, reference compound], the concentration for half-maximal inhibition (IC50) in [9] (Homo sapiens, MDA-MB-231) is above 20 µM; in data set [1] (Homo sapiens, MCF7), above 50 µM; in data set [11] (Homo sapiens, MDA-MB-231, 48 hours) it was 0.00286 ± 0.00066 µM; in data set [2] (Homo sapiens, MCF7, 48 hours), 0.00492 ± 0.00071 µM; in [3] (Homo sapiens, HaCaT) it was 0.0427 ± 0.00075 µM; in data set [4] (Homo sapiens, HEK293, 48 hours), 0.1038 ± 0.00048 µM.
